Laboratory results taken from ChEMBL document CHEMBL1146953, “Carbonic anhydrase inhibitors: cloning and sulfonamide inhibition studies of a carboxyterminal truncated alpha-carbonic anhydrase from Helicobacter pylori” (Bioorg Med Chem Lett, 2006).

Molecular target: carbonic anhydrase (Helicobacter pylori, UniProt O25798)
Sequence (O25798 1-202): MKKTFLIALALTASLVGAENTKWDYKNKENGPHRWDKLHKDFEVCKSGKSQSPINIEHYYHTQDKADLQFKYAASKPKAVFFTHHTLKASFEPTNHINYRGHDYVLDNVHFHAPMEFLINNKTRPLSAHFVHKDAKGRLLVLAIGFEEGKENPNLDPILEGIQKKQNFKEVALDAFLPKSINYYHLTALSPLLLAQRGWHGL
Description: (§1) Inhibition of Helicobacter pylori recombinant CA

| Structure (SMILES) | Ki |
| --- | --- |
| NS(=O)(=O)c1ccc(S(=O)(=O)Nc2cccc3c(Cl)c[nH]c23)cc1 | 434 nM |
| Nc1ccc(S(N)(=O)=O)cc1Cl | 395 nM |
| NCCc1ccc(S(N)(=O)=O)cc1 | 1040 nM |
| Nc1ccc(S(N)(=O)=O)cc1Br | 463 nM |
| Nc1ccc(S(=O)(=O)NCCc2ccc(S(N)(=O)=O)cc2)cc1 | 96 nM |
| Cc1ccc(S(N)(=O)=O)cc1 [P-TOLUENESULFONAMIDE] | 473 nM |
| CCOc1ccc2nc(S(N)(=O)=O)sc2c1 [ETHOXZOLAMIDE] | 155 nM |
| Nc1ccc(S(N)(=O)=O)cc1I | 504 nM |
| NS(=O)(=O)c1nnc(NS(=O)(=O)c2ccccc2)s1 [BENZOLAMIDE] | 287 nM |
| Cn1nc(S(N)(=O)=O)sc1=N | 494 nM |
| NS(=O)(=O)c1nnc(-c2ccccc2Cl)s1 | 84 nM |
| NS(=O)(=O)c1ccc(C(=O)O)cc1 [CARZENIDE] | 1080 nM |
| Nc1ccc(S(N)(=O)=O)cc1 [SULFANILAMIDE] | 431 nM |
| CCN[C@H]1CN(CCCOC)S(=O)(=O)c2sc(S(N)(=O)=O)cc21 [BRINZOLAMIDE] | 246 nM |
| NS(=O)(=O)c1ccc(CO)cc1 | 870 nM |
| Nc1ccc(S(N)(=O)=O)cc1F | 1310 nM |
| NCc1ccc(S(N)(=O)=O)cc1 [MAFENIDE] | 830 nM |
| NNc1ccccc1S(N)(=O)=O | 562 nM |
| Nc1cc(C(F)(F)F)c(S(N)(=O)=O)cc1S(N)(=O)=O [2,4-DISULFAMYLTRIFLUOROMETHYLANILINE] | 402 nM |
| Nc1ccc(S(=O)(=O)Nc2nnc(S(N)(=O)=O)s2)cc1 | 213 nM |
| NS(=O)(=O)c1nc2ccc(O)cc2s1 | 174 nM |
| Nc1cc(Cl)c(S(N)(=O)=O)cc1S(N)(=O)=O | 41 nM |
| Nc1nccc(Nc2ccc(S(N)(=O)=O)cc2)n1 | 72 nM |
| Nc1ccc(S(=O)(=O)NCc2ccc(S(N)(=O)=O)cc2)cc1 | 124 nM |
| NS(=O)(=O)c1ccc(CCO)cc1 | 1160 nM |

Molecular target: T1, Carbonic anhydrase (Helicobacter pylori (strain ATCC 700392 / 26695) (Campylobacterpylori), UniProt O24855)
T1 sequence (O24855 whole entry): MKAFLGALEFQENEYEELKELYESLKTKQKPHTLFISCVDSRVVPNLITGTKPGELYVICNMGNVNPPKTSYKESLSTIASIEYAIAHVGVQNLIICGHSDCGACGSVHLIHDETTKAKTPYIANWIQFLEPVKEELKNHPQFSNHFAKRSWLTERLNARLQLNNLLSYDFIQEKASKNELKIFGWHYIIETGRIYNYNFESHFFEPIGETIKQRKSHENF
Description: as §1

| Structure (SMILES) | Ki |
| --- | --- |
| CC1(C)O[C@@H]2[C@@H](CO[C@@]3(COS(N)(=O)=O)OC(C)(C)O[C@@H]23)O1 [TOPIRAMATE] | 205 nM |
